Earlier results, collected in patent US20100260755A1, “IBUDILAST AND IMMUNOMODULATORS COMBINATION” (MediciNova, Inc., priority 2009, published 2010).

Assays:
[1] = test system: experimental autoimmune encephalomyelitis; conditions: in vivo
[2] = test system: multiple sclerosis patients; conditions: daily injections, exacerbating-remitting MS
[3] = test system: T-cells isolated from peripheral blood of MS patients; conditions: in vitro

Substance: Glatiramer acetate
- effect on experimental autoimmune encephalomyelitis (EAE) [1]: suppress
- production of inflammatory mediators TNF-α, nitric oxide, superoxide by glial cells (glial cells): effectively suppress
- exacerbations versus control patients [2]: fewer exacerbations
- increases in disability status versus control patients [2]: smaller increases
- IL-5 and IL-13 cytokine secretion [3]: induces
